Measured values from patent US20090176786A1, “Benzoylurea Compounds and Use Thereof” (priority 2005, published 2009).
Read-outs that look alike come from different tables or passages of the source.

How the values were obtained:
Format in all cases: in vivo
Plutella xylostella = experiment: Test Example 2: cabbage root immersion (systemic), dead pest rate of Plutella xylostella larvae; settings: for pest or weed control at 5 ppm / pest or weed control at 25 ppm / pest or weed control at 1 ppm: Plutella xylostella, 120 h; for pest or weed control at 5 ppm: read-out: dead pest rate; for pest or weed control at 1 ppm: test concentration of 1 ppm
Method: In 0.25 mL of a mixture solution of Sorgen TW-20 (manufactured by Daiichi Industries Pharmaceuticals, Co., Ltd.) and acetone (mixture volume ratio; Sorgen TW-20:acetone=1:19), 2.5 mg of the present compound (1), (2), (3), (4), (7), (10), (11), (12), (16), (18), (19), (20), (21), (22), (25), (30), (36), (37), (41), (42), (52), (54), (56), (57), (60), (62), (105) or (109) was dissolved. The solution was diluted with ion-exchanged water so that the active ingredient concentration became to a predetermined concentration to prepare a pesticidal solution for test of the test compound. The root part of cabbages in the fourth leaf period were washed with tap water to remove soils, and then immersed in the pesticidal solution for test. After 5 days from immersion of the root part, the root part was removed, and the leaves and stems were put in a cup (volume; 180 mL). In the cup 10 second-instar larvae of Plutella xylostella were released, and the cup was stored at 24° C. After 5 days, the number of dead pests was counted, and the dead pest rate was calculated by the following equation:
(§1) Dead pest rate(%)=(the number of dead pests/the number of tested pests)×100
The test concentrations of the other present compounds were 25 ppm.

[1] = system: Frankliniella occidentalis; experiment: Test Example 4: spray on cucumber, control value against Frankliniella occidentalis larvae; settings: 168 h, spray 20 ml/cup on cucumber, 30 larvae, seven days after spraying; for pest or weed control at 12.5 ppm: test concentration 12.5 ppm; for pest or weed control at 50 ppm: test concentration 50 ppm
Method: The obtained preparation was diluted with water so that the active ingredient concentration became to a predetermined concentration to prepare a spray solution for test. […] were planted in polyethylene cups, and were grown until the first true leaf was developed. The spray solution for test prepared above was sprayed at the rate of 20 ml/cup on the cucumber. After the pesticidal solution sprayed onto the cucumber was dried, the first true leaf was cut off and then placed on a filter paper (diameter: 70 mm) containing water in a polyethylene cup (diameter: 110 mm). On the cucumber leaf, 30 larvae of Frankliniella occidentalis were released, and the polyethylene cup was capped. Seven days after spraying, the number of pests surviving on the cucumber leaf was counted, and a control value was calculated by the following equation: Control value(%)={1−(Cb×Tai)/(Cai×Tb)}×100 wherein, each symbol has following meaning: Cb: the number of pests before treatment in a non-treated area Cai: the number of pests at the time of observation in a non-treated area Tb: the number of pests before treatment in a treated-area Tai: the number of pests at the time of observation in a treated-area. […] The test concentrations of the other present compounds were 50 ppm.

Spondoptela litura = experiment: Test Example 3: treated artificial diet (Insecta LF), dead pest rate of Spondoptela litura larvae; settings: 144 h, 2 mL on Insecta LF diet, 5 fourth-instar larvae, after 6 days
From the text: Ten parts of the present compound (1) to (5), (7) to (13), (18) to (33), (35) to (49), (52) to (56), (58) to (61), (71), (73) to (77), (79), (80), (82), (83), (93), (94), (95), (96), (97), (100) to (109), (111), (112), (115), (117), (119), (121), or (123) to (133), 35 parts of white carbon containing 50 parts of polyoxyethylene alkyl ether sulfate ammonium salt, and 55 parts of water were mixed, and finely ground by a wet grinding method to obtain a preparation. The obtained preparation was diluted with water so that the active ingredient concentration became to 500 ppm to prepare a pesticidal solution for test. On the bottom of a polyethylene cup having a diameter of 5.5 cm, a filter paper having a diameter of 5.5 cm was placed, on which Insecta LF (Nippon Agriculture Industries, Co., Ltd.) sliced in a thickness of 6 mm and further cut half was laid, and to which 2 mL of the above-described pesticidal solution for test was added. After air-dried, 5 fourth-instar larvae of Spondoptela litura were released in the cup, and the cup was capped. After 6 days, the number of dead pests was counted, and the dead pest rate was calculated by the following equation:
as §1

[2] = test concentration of 5 ppm, root immersion 5 days, 10 second-instar larvae, after 5 days at 24° C.
[3] = test concentration 25 ppm, root immersion 5 days, 10 second-instar larvae, after 5 days at 24° C.
[4] = root immersion 5 days, 10 second-instar larvae, after 5 days at 24° C.

Compound: CN(C(=O)NC(=O)c1c(F)cccc1F)c1ccc(SC(F)(F)F)cc1 [(7)]
- pest or weed control at 5 ppm (Plutella xylostella; [2]): 100%
- pest or weed control at 12.5 ppm [1]: 100%

Compound: COCN(C(=O)c1c(F)cccc1F)C(=O)N(C)c1ccc(SC(F)(F)F)cc1F [(11)]
- pest or weed control at 25 ppm (Plutella xylostella; [3]): 100%

Compound: CCSc1ccc(N(C)C(=O)N(C)C(=O)c2c(F)cccc2F)c(F)c1 [(16)]
- pest or weed control at 25 ppm (Plutella xylostella; [3]): 100%

Compound: CN(C(=O)NC(=O)c1c(F)cccc1F)c1ccc([S+]([O-])C(F)(F)F)cc1F (centres unmarked) [(18)]
- pest or weed control at 1 ppm (Plutella xylostella; [4]): 100%

Compound: CN(C(=O)c1c(F)cccc1F)C(=O)N(C)c1ccc([S+]([O-])C(F)(F)F)cc1F (centres unmarked) [(19)]
- pest or weed control at 1 ppm (Plutella xylostella; [4]): 100%

Compound: CN(C(=O)c1c(F)cccc1F)C(=O)N(C)c1ccc(S(=O)(=O)C(F)(F)F)cc1F [(21)]
- pest or weed control at 1 ppm (Plutella xylostella; [4]): 100%

Compound: CN(C(=O)c1c(F)cccc1F)C(=O)N(C)c1ccc(SC(F)(F)C(F)(F)C(F)(F)F)cc1F [(22)]
- pest or weed control at 5 ppm (Plutella xylostella): 100%
- pest or weed control at 3.2 ppm ([1]; test concentration 3.2 ppm): 100%

Compound: CN(C(=O)NC(=O)c1c(F)cccc1Cl)c1ccc(SC(F)(F)C(F)F)cc1F [(23)]
- pest or weed control at 12.5 ppm [1]: 100%

Compound: CN(C(=O)NC(=O)c1c(F)cccc1F)c1ccc([S+]([O-])C(F)(F)C(F)F)cc1F (centres unmarked) [(24)]
- pest or weed control at 12.5 ppm [1]: 100%

Compound: CN(C(=O)NC(=O)c1c(F)cccc1F)c1ccc(S(=O)(=O)C(F)(F)C(F)F)cc1F [(25)]
- pest or weed control at 5 ppm (Plutella xylostella; [2]): 100%
- pest or weed control at 12.5 ppm [1]: 100%

Compound: CN(C(=O)NC(=O)c1c(F)cccc1F)c1ccc(SC(F)(F)C(F)(F)C(F)(F)F)cc1F [(28)]
- pest or weed control at 50 ppm [1]: 100%

Compound: CN(C(=O)NC(=O)c1c(F)cccc1Cl)c1ccc(SC(F)(F)C(F)(F)C(F)(F)F)cc1F [(29)]
- pest or weed control at 50 ppm [1]: 100%

Compound: CN(C(=O)NC(=O)c1c(F)cccc1F)c1ccc(SC(F)(F)C(F)(F)F)cc1F [(30)]
- pest or weed control at 5 ppm (Plutella xylostella; [2]): 100%
- pest or weed control at 50 ppm [1]: 100%

Compound: CN(C(=O)NC(=O)c1c(F)cccc1F)c1ccc(SC(F)(F)C(F)C(F)(F)F)cc1F (centres unmarked) [(31)]
- pest or weed control at 50 ppm [1]: 100%

Compound: CN(C(=O)NC(=O)c1c(F)cccc1F)c1ccc(SC(F)F)cc1Cl [(34)]
- pest or weed control at 50 ppm [1]: 100%

Compound: Cc1cc(SC(F)(F)F)ccc1N(C)C(=O)NC(=O)c1c(F)cccc1F [(36)]
- pest or weed control at 5 ppm (Plutella xylostella; [2]): 100%
- pest or weed control at 12.5 ppm [1]: 100%

Compound: CN(C(=O)NC(=O)c1c(F)cccc1F)c1ccc(C(=O)OC(C)(C)C)cc1F [(37)]
- dead pest rate (Plutella xylostella; [3]): 100%

Compound: CN(C(=O)c1c(F)cccc1F)C(=O)N(C)c1ccc(S(=O)(=O)C(F)(F)C(F)F)cc1F [(40)]
- pest or weed control at 12.5 ppm [1]: 100%

Compound: CCN(C(=O)N(C)C(=O)c1c(F)cccc1F)c1ccc(SC(F)(F)F)cc1F [(41)]
- pest or weed control at 25 ppm (Plutella xylostella; [3]): 100%
- pest or weed control at 50 ppm [1]: 100%

Compound: Cc1cc(SC(F)(F)F)ccc1N(C)C(=O)N(C)C(=O)c1c(F)cccc1F [(42)]
- pest or weed control at 25 ppm (Plutella xylostella; [3]): 100%

Compound: CN(C(=O)c1c(F)cccc1Cl)C(=O)N(C)c1ccc(SC(F)(F)C(F)(F)C(F)(F)F)cc1F [(45)]
- pest or weed control at 50 ppm [1]: 100%

Compound: CN(C(=O)c1c(F)cccc1F)C(=O)N(C)c1ccc(SC(F)(F)C(F)C(F)(F)F)cc1F (centres unmarked) [(47)]
- pest or weed control at 50 ppm [1]: 100%

Compound: Cc1c(SC(F)(F)C(F)(F)F)ccc(N(C)C(=O)N(C)C(=O)c2c(F)cccc2F)c1C [(49)]
- pest or weed control at 50 ppm [1]: 100%

Compound: CC(=O)N(C(=O)c1c(F)cccc1F)C(=O)N(C)c1ccc(SC(F)(F)F)cc1F [(52)]
- pest or weed control at 5 ppm (Plutella xylostella; [2]): 100%

Compound: CN(C(=O)N(C(=O)c1c(F)cccc1F)S(C)(=O)=O)c1ccc(SC(F)(F)F)cc1F [(54)]
- pest or weed control at 25 ppm (Plutella xylostella; [3]): 100%

Compound: CCN(C(=O)c1c(F)cccc1F)C(=O)N(C)c1ccc(SC(F)(F)F)cc1F [(56)]
- pest or weed control at 25 ppm (Plutella xylostella; [3]): 100%
- pest or weed control at 50 ppm [1]: 100%

Compound: CN(C(=O)NC(=O)c1c(F)cccc1F)c1ccc(SC(F)F)cc1F [(57)]
- pest or weed control at 5 ppm (Plutella xylostella; [2]): 100%

Compound: C#CCN(C(=O)c1c(F)cccc1F)C(=O)N(C)c1ccc(SC(F)(F)F)cc1F [(60)]
- pest or weed control at 25 ppm (Plutella xylostella; [3]): 100%

Compound: CN(C(=O)N(C(=O)c1c(F)cccc1F)C1CC1)c1ccc(SC(F)(F)F)cc1F [(69)]
- pest or weed control at 50 ppm [1]: 100%

Compound: CN(C(=O)N(CC1CC1)C(=O)c1c(F)cccc1F)c1ccc(SC(F)(F)F)cc1F [(71)]
- pest or weed control at 500 ppm (Spondoptela litura): 100%
- pest or weed control at 50 ppm [1]: 100%

Compound: CSCCN(C(=O)c1c(F)cccc1F)C(=O)N(C)c1ccc(SC(F)(F)F)cc1F [(73)]
- pest or weed control at 50 ppm [1]: 100%

Compound: CN(C(=O)N(Cc1ccccn1)C(=O)c1c(F)cccc1F)c1ccc(SC(F)(F)F)cc1F [(76)]
- pest or weed control at 50 ppm [1]: 100%

Compound: CN(C(=O)N(C(=O)c1c(F)cccc1F)N1CCOCC1)c1ccc(SC(F)(F)F)cc1F [(79)]
- pest or weed control at 500 ppm (Spondoptela litura): 100%

Compound: CN(C(=O)N(CCN1CCOCC1)C(=O)c1c(F)cccc1F)c1ccc(SC(F)(F)F)cc1F [(80)]
- pest or weed control at 500 ppm (Spondoptela litura): 100%

Compound: CN(C(=O)NC(=O)c1c(Cl)cccc1Cl)c1ccc(SC(F)(F)F)cc1F [(95)]
- pest or weed control at 500 ppm (Spondoptela litura): 100%

Compound: CN(C(=O)c1c(Cl)cccc1Cl)C(=O)N(C)c1ccc(SC(F)(F)F)cc1F [(96)]
- pest or weed control at 500 ppm (Spondoptela litura): 100%

Compound: CN(C(=O)c1c(F)cccc1F)C(=O)N(C)c1ccc(SC(F)(F)F)cc1Cl [(104)]
- pest or weed control at 50 ppm [1]: 100%

Compound: Cc1cc(SC(F)(F)C(F)(F)F)ccc1N(C)C(=O)NC(=O)c1c(F)cccc1F [(105)]
- pest or weed control at 25 ppm (Plutella xylostella; [3]): 100%
- pest or weed control at 50 ppm [1]: 100%

Compound: Cc1cc(SC(F)(F)C(F)(F)F)ccc1N(C)C(=O)N(C)C(=O)c1c(F)cccc1F [(106)]
- pest or weed control at 50 ppm [1]: 100%

Compound: CN(C(=O)NC(=O)c1c(F)cccc1F)c1ccc(SC(F)(F)C(F)(F)F)cc1Cl [(107)]
- pest or weed control at 50 ppm [1]: 100%

Compound: CN(C(=O)c1c(F)cccc1F)C(=O)N(C)c1ccc(SC(F)(F)C(F)(F)F)cc1Cl [(108)]
- pest or weed control at 50 ppm [1]: 100%

Compound: CN(C(=O)NC(=O)c1c(F)cccc1F)c1ccc(SC(F)(F)C(F)OC(F)(F)F)cc1F (centres unmarked) [(109)]
- pest or weed control at 25 ppm (Plutella xylostella; [3]): 100%
- pest or weed control at 50 ppm [1]: 100%

Compound: CN(C(=O)c1c(F)cccc1F)C(=O)N(C)c1ccc(SC(F)(F)C(F)OC(F)(F)F)cc1F (centres unmarked) [(110)]
- pest or weed control at 50 ppm [1]: 100%

Compound: COc1cccc(CN(C(=O)c2c(F)cccc2F)C(=O)N(C)c2ccc(SC(F)(F)F)cc2F)c1 [(119)]
- pest or weed control at 500 ppm (Spondoptela litura): 100%

Compound: CSc1ccc(N(C)C(=O)NC(=O)c2c(F)cccc2F)c(C(F)(F)F)c1 [(121)]
- pest or weed control at 500 ppm (Spondoptela litura): 100%

Compound: Cc1cc(SC(F)(F)C(F)F)ccc1N(C)C(=O)N(C)C(=O)c1c(F)cccc1F [(131)]
- pest or weed control at 50 ppm [1]: 100%
